Measured values as given in patent publication US9447136B2, “Semisynthetic derivatives of Nystatin A1” (BLIRT S.A., priority 2012, dated 2016).
In brackets after ≈: the same amount, converted by molar mass.

What was measured:
[1] = test system: Candida albicans ATCC 10231; assay: Antifungal activity in vitro, serial dilution in RPMI 1640; format: cell-based; conditions: Table 2B
Summary of the method: (§1)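 Optical density at 531 nm served as the growth read-out after serial dilution of compound in RPMI 1640 buffered to pH 7.0 per the NCCLS M27-A2 standard. IC50 values came from concentration–A531 plots (50% of control), MIC values from the lowest concentration holding A531 at no more than 20% of control.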

[2] = test system: Candida lipolytica KKP 322; assay: as above; format: cell-based; conditions: Table 2B
Summary of the method: as §1

[3] = test system: Saccharomyces cerevisiae ATCC 9763; assay: as above; format: cell-based; conditions: Table 2B
Summary of the method: as §1

[4] = test system: Candida parapsilosis DSM 5784; assay: as above; format: cell-based; conditions: Table 2B
Summary of the method: as §1

[5] = test system: Candida dubliniensis CBS 7987; assay: as above; format: cell-based; conditions: Table 2B
Summary of the method: as §1

[6] = test system: Candida stellatoidea CBS 1905; assay: as above; format: cell-based; conditions: Table 2B
Summary of the method: as §1

[7] = test system: Candida pseudotropicalis KKP 324; assay: as above; format: cell-based; conditions: Table 2B
Summary of the method: as §1

Candida arborea KKP 319 = assay: as above; format: cell-based; conditions: Table 2B
Summary of the method: as §1

[8] = test system: Trichoderma viride LOCK E159; assay: as above; format: cell-based; conditions: Table 2B
Summary of the method: as §1

[9] = test system: Candida quilliermondii DSM 11947; assay: as above; format: cell-based; conditions: Table 2B
Summary of the method: as §1

[10] = test system: Aspergillus niger LOCK E201; assay: as above; format: cell-based; conditions: Table 2B
Summary of the method: as §1

Candida albicans STY31 = assay: Antifungal activity towards resistant (MDR) strains; format: cell-based
Experimental: (§2) The determination of antifungal activity was performed by the serial dilutions method in buffered RPMI 1640 medium, in a 96-wells microplates, according to the standard procedure (National Committee for Clinical Laboratory Standards. Reference method for broth dilution antifungal susceptibility testing of yeast, approved standard, 2nd ed. M27-A2 vol. 22 Wayne, Pa., 2002). The optical density of cells suspension was measured using a microplates reader (Victor^3, Perkin-Elmer) at the wavelength λ=660 nm (A660). On the basis of received results the diagrams on interrelation between the A660 value and the concentration of tested compound were made. From these graphs MIC values were read, that are the concentrations of tested compounds, in the presence at which A660 value is at most 20% of A660 value measured in control sample.

Candida albicans 5674 = assay: as above; format: cell-based
Experimental: as §2

Candida albicans Gu4 = assay: as above; format: cell-based; conditions: fluconazole sensitive, parent strain for Gu5
Experimental: as §2

Candida albicans B3 = assay: as above; format: cell-based; conditions: fluconazole sensitive, parent strain for B4
Experimental: as §2

Candida albicans B4 = assay: as above; format: cell-based
Experimental: as §2

Candida albicans STY7 = assay: as above; format: cell-based
Experimental: as §2

Candida albicans F5 = assay: as above; format: cell-based
Experimental: as §2

Candida albicans F2 = assay: as above; format: cell-based; conditions: fluconazole sensitive, parent strain for F5
Experimental: as §2

Candida albicans STY19 = assay: as above; format: cell-based
Experimental: as §2

Candida albicans Gu5 = assay: as above; format: cell-based; conditions: fluconazole-resistant due to the overexpression of CDR1 and CDR2
Experimental: as §2

Human erythrocytes = assay: Hemotoxicity (hemolytic activity)
Experimental: The hemotoxicity determination were carried out by the serial dilutions method, according to the procedure described earlier (Ślisz, M., et al., E., J Antibiot 57: 669-678 (2004)). Human erythrocytes were suspensed in the solution of saline to obtain a cell density of suspension 2×10^7/ml. Suitable amounts of diluted solutions of compounds were added to the cell suspension in tubes and were incubated at 37° C. for 30 minutes and then centrifuged (1700×g, 10 min, 4° C.). The concentration of hemoglobin in supernatant after centrifugation of erythrocytes suspension were determined by measuring the absorbance at wavelength λ=540 nm (A540). The maximum level of hemolysis was obtained after incubation of cells suspension in the presence of 0.1% Tritone X-100 (control sample). […] From these graphs, the EH50 values were read which are the interpolated concentrations of compound, for which the A540 value is exactly 50% of the A540 value measured for the control sample.

Question: For `OC(Cn1cncn1)(Cn1cncn1)c1ccc(F)cc1F` [Fluconazole, reference compound], which MIC ([1]; Candida albicans, ATCC10231) is on record?
Answer: 2 µg/mL (≈ 6.53 µM)

Question: What about the MIC ([2]; Yarrowia lipolytica, KKP322) of the same compound?
Answer: 8 µg/mL (≈ 26.1 µM)

Question: What about the MIC ([3]; Saccharomyces cerevisiae, ATCC9763) of the same compound?
Answer: 2 µg/mL (≈ 6.53 µM)

Question: And the MIC ([4]; Lodderomyces parapsilosis, DSM5784)?
Answer: 8 µg/mL (≈ 26.1 µM)

Question: What about the MIC ([5]; Candida dubliniensis, CBS7987) of the same compound?
Answer: 2 µg/mL (≈ 6.53 µM)

Question: And the MIC ([6]; Candida albicans, CBS1905)?
Answer: 0.5 µg/mL (≈ 1.63 µM)

Question: What about the MIC ([7]; Kluyveromyces marxianus, KKP324) of the same compound?
Answer: 0.5 µg/mL (≈ 1.63 µM)

Question: What about the MIC (Candida arborea KKP 319; Candida, KKP319) of the same compound?
Answer: 8 µg/mL (≈ 26.1 µM)

Question: And the MIC ([8]; Trichoderma viride, LOCKE159)?
Answer: 8 µg/mL (≈ 26.1 µM)

Question: What about the MIC ([9]; Candida, DSM11947) of the same compound?
Answer: 8 µg/mL (≈ 26.1 µM)

Question: And the MIC ([10]; Aspergillus niger, LOCKE201)?
Answer: 16 µg/mL (≈ 52.2 µM)

Question: What about the MIC (Candida albicans STY31; Candida albicans, STY31, read-out: MIC Candida albicans STY31) of the same compound?
Answer: 64 µg/mL (≈ 209 µM)

Question: And the MIC (Candida albicans 5674; Candida albicans, 5674, read-out: MIC Candida albicans 5674)?
Answer: 2050 µg/mL (≈ 6690 µM)

Question: And the MIC (Candida albicans Gu4; Candida albicans, GU4)?
Answer: 0.5 µg/mL (≈ 1.63 µM)

Question: And the MIC (Candida albicans B3; Candida albicans, B3)?
Answer: 0.5 µg/mL (≈ 1.63 µM)

Question: What about the MIC (Candida albicans B4; Candida albicans, B4, read-out: MIC Candida albicans B4) of the same compound?
Answer: 16 µg/mL (≈ 52.2 µM)

Question: What about the MIC (Candida albicans STY7; Candida albicans, STY7, read-out: MIC Candida albicans STY7) of the same compound?
Answer: 512 µg/mL (≈ 1670 µM)

Question: And the MIC (Candida albicans F5; Candida albicans, F5, read-out: MIC Candida albicans F5)?
Answer: 128 µg/mL (≈ 418 µM)

Question: And the MIC (Candida albicans F2; Candida albicans, F2)?
Answer: 32 µg/mL (≈ 104 µM)

Question: What about the MIC (Candida albicans STY19; Candida albicans, STY19, read-out: MIC Candida albicans STY19) of the same compound?
Answer: 64 µg/mL (≈ 209 µM)

Question: And the MIC (Candida albicans Gu5; Candida albicans, GU5)?
Answer: 256 µg/mL (≈ 836 µM)

Question: `C[C@@H]1[C@H](O)[C@@H](C)/C=C/C=C/CC/C=C/C=C/C=C/C=C/[C@H](O[C@@H]2O[C@H](C)[C@@H](O)[C@H](NC(=O)[C@H](N)c3ccccc3)[C@@H]2O)C[C@@H]2O[C@](O)(C[C@@H](O)C[C@@H](O)[C@H](O)CC[C@@H](O)C[C@@H](O)CC(=O)O[C@H]1C)C[C@H](O)[C@H]2C(=O)O` [Compound N33, N-D-phenylglycylnystatin A1] was tested. Which “% of hemolysis at the concentration 300 μg ml^−1” value (Human erythrocytes) did it give?
Answer: 8.69%

Question: What about the EH10 (Human erythrocytes) of the same compound?
Answer: >300 µg/mL

Question: And the “MIC Candida albicans ATCC 10231” value [1]?
Answer: 8 µg/mL (≈ 7.55 µM)

Question: And the “MIC Candida lipolytica KKP 322” value [2]?
Answer: 16 µg/mL (≈ 15.1 µM)

Question: What about the “MIC Saccharomyces cerevisiae ATCC 9763” value [3] of the same compound?
Answer: 4 µg/mL (≈ 3.78 µM)

Question: What about the “MIC Candida parapsilosis DSM 5784” value [4] of the same compound?
Answer: 32 µg/mL (≈ 30.2 µM)

Question: And the “MIC Candida dubliniensis CBS 7987” value [5]?
Answer: 16 µg/mL (≈ 15.1 µM)

Question: What about the “MIC Candida stellatoidea CBS 1905” value [6] of the same compound?
Answer: 8 µg/mL (≈ 7.55 µM)

Question: What about the “MIC Candida pseudotropicalis KKP 324” value [7] of the same compound?
Answer: 8 µg/mL (≈ 7.55 µM)

Question: What about the “MIC Candida arborea KKP 319” value (Candida arborea KKP 319) of the same compound?
Answer: 32 µg/mL (≈ 30.2 µM)

Question: What about the “MIC Trichoderma viride LOCK E159” value [8] of the same compound?
Answer: 32 µg/mL (≈ 30.2 µM)

Question: What about the “MIC Candida quilliermondii DSM 11947” value [9] of the same compound?
Answer: 16 µg/mL (≈ 15.1 µM)

Question: What about the “MIC Aspergillus niger LOCK E201” value [10] of the same compound?
Answer: 32 µg/mL (≈ 30.2 µM)

Question: And the “MIC Candida albicans STY31” value (Candida albicans STY31; 5674 mutant derivative, deletion of CDR1 and CDR2)?
Answer: 16 µg/mL (≈ 15.1 µM)

Question: What about the “MIC Candida albicans 5674” value (Candida albicans 5674; C. albicans 5674 overexpressing CDR1 and CDR2) of the same compound?
Answer: 16 µg/mL (≈ 15.1 µM)

Question: What about the “MIC Candida albicans Gu4” value (Candida albicans Gu4) of the same compound?
Answer: 8 µg/mL (≈ 7.55 µM)

Question: What about the “MIC Candida albicans B3” value (Candida albicans B3) of the same compound?
Answer: 4 µg/mL (≈ 3.78 µM)

Question: And the “MIC Candida albicans B4” value (Candida albicans B4; fluconazole-resistant due to the overexpression of CaMDR1)?
Answer: 8 µg/mL (≈ 7.55 µM)

Question: And the “MIC Candida albicans STY7” value (Candida albicans STY7; 5674 mutant derivative, deletion of CDR2)?
Answer: 16 µg/mL (≈ 15.1 µM)

Question: And the “MIC Candida albicans F5” value (Candida albicans F5; fluconazole-resistant due to the overexpression of CaMDR1 and ERG11)?
Answer: 32 µg/mL (≈ 30.2 µM)

Question: What about the “MIC Candida albicans F2” value (Candida albicans F2) of the same compound?
Answer: 16 µg/mL (≈ 15.1 µM)

Question: And the “MIC Candida albicans STY19” value (Candida albicans STY19; 5674 mutant derivative, deletion of CDR1)?
Answer: 16 µg/mL (≈ 15.1 µM)

Question: And the “MIC Candida albicans Gu5” value (Candida albicans Gu5)?
Answer: 8 µg/mL (≈ 7.55 µM)
